# Source: US20100311748A1, “HETEROCYCLIC AMIDES USEFUL FOR THE TREATMENT OF CANCER AND PSORIASIS” (ASTRAZENECA AB, priority 2007, published 2010)
# Test system: Hedgehog pathway
# Test: Hedgehog Pathway Cellular Differentiation Assay (alkaline phosphatase production in C3H10T1/2 cells with Shh ligand)
# Format: cell-based
# Details: Mus musculus, C3H 10T1/2, 3 μM compound, Shh ligand conditioned media, 72 h, alkaline phosphatase
# Experimental: Hedgehog Pathway Cellular Differentiation Assay The ability of compounds of the invention to inhibit the Hedgehog pathway can be determined by the following cell differentiation assay. C3H10T1/2 cells were plated into 384 well plates at a concentration of 5000 cells/well in DMEM/10% FBS. The following day the media was changed to 20% conditioned media (low serum media DMEM/2% FBS+Shh ligand). Compounds were solubilized in 100% DMSO to a concentration of 10 mM and then serially diluted three fold in 100% DMSO. The highest concentration in the cell plate was 30 μM and the lowest was 3 nM. The compounds were then added to the cells. Cell plates were incubated with the compound for 72 h and then assayed for alkaline phosphatase production using pNp as a substrate. Briefly, after 72 h of incubation, the media was aspirated from the cells and washed with 30 μl of PBS. PBS was aspirated off the cells and 15 μl of 1×RIPA cell lysis buffer is added on to the cells. The cell plates are then incubated at −80° C. for 30 minutes to insure proper cell lysis. The plates were then thawed back to RT. The substrate solution containing pNp at 1 mg/mL in diethanolamine buffer pH 9.8 was then added onto the lysed cells. The plates were incubated at 30° C. for color development and read at an absorbance of 405 nm. The percent inhibition and IC50 value was then calculated from the absorbance data using standard procedures.
row,Structure (SMILES),inhibition at 3 µM [%]
1,"Cc1ccc(-c2ncc[nH]2)cc1NC(=O)c1cccc(Cl)c1 [Example 152, 3-chloro-N-[5-(1H-imidazol-2-yl)-2-methyl-phenyl]benzamide]",45.3
2,"Cc1ccc(-c2ncc[nH]2)cc1NC(=O)c1ccc(OCc2cc(N3CCOCC3)ccn2)cc1 [Example 89, N-[5-(1H-imidazol-2-yl)-2-methylphenyl]-4-[(4-morpholin-4-ylpyridin-2-yl)methoxy]benzamide]",72.7
3,"Cc1ccc(-c2ncc[nH]2)cc1NC(=O)c1ccc(OCc2cccc(N(C)C)n2)cc1 [Example 125, N-(5-(1H-imidazol-2-yl)-2-methylphenyl)-4-((6-(dimethylamino)pyridin-2-yl)methoxy)benzamide]",76.7
4,"Cc1ccc(-c2ncc[nH]2)cc1NC(=O)c1ccc(N2CCOCC2)nc1 [Example 153, N-[5-(1H-imidazol-2-yl)-2-methyl-phenyl]-6-morpholin-4-yl-pyridine-3-carboxamide]",53.7
5,"Cc1ccc(-c2ncc[nH]2)cc1NC(=O)c1ccc(CCc2ccccn2)cc1 [Example 108, N-[5-(1H-imidazol-2-yl)-2-methylphenyl]-4-(2-pyridin-2-ylethyl)benzamide]",92.4
6,"Cc1ccc(-c2nccn2C)cc1NC(=O)c1ccc(OCc2ccc(Br)cc2C#N)cc1 [Example 99, 4-[(4-bromo-2-cyanobenzyl)oxy]-N-[2-methyl-5-(1-methyl-1H-imidazol-2-yl)phenyl]benzamide]",29.9
7,"Cc1ccc(-c2ncc[nH]2)cc1NC(=O)c1ccc(OC(C)c2ccccn2)cc1 (centres unmarked) [Example 110, N-[5-(1H-imidazol-2-yl)-2-methylphenyl]-4-(1-pyridin-2-ylethoxy)benzamide]",92.3
8,"Cc1ccc(-c2ncc[nH]2)cc1NC(=O)c1ccc(OCc2ccc(CO)cc2)cc1 [Example 62, 4-{[4-(hydroxymethyl)benzyl]oxy}-N-[5-(1H-imidazol-2-yl)-2-methylphenyl]benzamide]",76.9
9,"Cc1ccc(-c2ncnc3nc[nH]c23)cc1NC(=O)c1ccc(OCc2ccccn2)cc1 [Example 18, N-[2-methyl-5-(7H-purin-6-yl)phenyl]-4-(pyridin-2-ylmethoxy)benzamide]",48.4
10,"Cc1ccc(-c2ncc[nH]2)cc1NC(=O)c1ccc(OCc2ncccc2O)cc1 [Example 144, N-(5-(1H-imidazol-2-yl)-2-methylphenyl)-4-((3-hydroxypyridin-2-yl)methoxy)benzamide]",8.8
11,"Cc1ccc(-c2nc(C(C)(C)C)c[nH]2)cc1NC(=O)c1ccc(OCc2ccccn2)cc1 [Example 86, N-[5-(4-tert-butyl-1H-imidazol-2-yl)-2-methylphenyl]-4-(pyridin-2-ylmethoxy)benzamide]",85.7
12,"Cc1ccc(-c2cn(C)cn2)cc1NC(=O)c1ccc(OCc2ccccn2)cc1 [Example 21, N-[2-methyl-5-(1-methyl-1H-imidazol-4-yl)phenyl]-4-(pyridin-2-ylmethoxy)benzamide]",73.4
13,"Cc1ccc(-c2nccn2C)cc1NC(=O)c1ccc(OCc2cc(F)ccc2C#N)cc1 [Example 101, 4-[(2-cyano-5-fluorobenzyl)oxy]-N-[2-methyl-5-(1-methyl-1H-imidazol-2-yl)phenyl]benzamide]",83.5
14,"Cc1ccc(-c2ncc[nH]2)cc1NC(=O)c1ccc(NCc2ccccn2)cc1 [Example 117, N-(5-(1H-imidazol-2-yl)-2-methylphenyl)-4-(pyridin-2-ylmethylamino)benzamide]",68.8
15,"Cc1cn(C)c(-c2ccc(C)c(NC(=O)c3ccc(OCc4ccccc4C#N)cc3)c2)n1 [Example 45, 4-[(2-cyanophenyl)methoxy]-N-[5-(1,4-dimethylimidazol-2-yl)-2-methyl-phenyl]benzamide]",80.3
16,"Cc1ccc(-c2ncc[nH]2)cc1NC(=O)c1ccc(OCc2ccccc2)cc1 [Example 58, N-(5-(1H-imidazol-2-yl)-2-methylphenyl)-4-(benzyloxy)benzamide]",86.2
17,"Cc1ccc(-c2ncc[nH]2)cc1NC(=O)c1ccc(OCc2cccc(Br)n2)cc1 [Example 119, N-(5-(1H-imidazol-2-yl)-2-methylphenyl)-4-((6-bromopyridin-2-yl)methoxy)benzamide]",92.4
18,"Cc1ccc(-c2ncc[nH]2)cc1NC(=O)c1ccc(OCc2ncccc2N2CCN(C)CC2)cc1 [Example 138, N-(5-(1H-imidazol-2-yl)-2-methylphenyl)-4-((3-(4-methylpiperazin-1-yl)pyridin-2-yl)methoxy)benzamide]",42.2

row,Structure (SMILES),inhibition at 3 µM [%]
1,"Cc1ccc(-c2ncc[nH]2)cc1NC(=O)c1ccc(Oc2ccccc2)nc1 [Example 145, N-[5-(1H-imidazol-2-yl)-2-methyl-phenyl]-6-phenoxy-pyridine-3-carboxamide]",67.1
2,"Cc1ccc(-c2nccn2C)cc1NC(=O)c1ccc(OCc2ccccn2)cc1 [Example 13, N-[2-methyl-5-(1-methylimidazol-2-yl)phenyl]-4-(pyridin-2-ylmethoxy)benzamide]",64.9
3,"O=C(Nc1cc(-c2nc3ccccc3[nH]2)ccc1Cl)c1ccc(OCc2ccccn2)cc1 [Example 106, N-[5-(1H-benzimidazol-2-yl)-2-chlorophenyl]-4-(pyridin-2-ylmethoxy)benzamide]",81.6
4,"COc1ccnc(COc2ccc(C(=O)Nc3cc(-c4ncc[nH]4)ccc3C)cc2)c1 [Example 92, N-[5-(1H-imidazol-2-yl)-2-methylphenyl]-4-[(4-methoxypyridin-2-yl)methoxy]benzamide]",76
5,"Cc1ccc(-c2ncc(CN3CCOCC3)s2)cc1NC(=O)c1ccc(OCc2ccccn2)cc1 [Example 12, N-[2-methyl-5-[5-(morpholin-4-ylmethyl)1,3-thiazol-2-yl]phenyl]-4-(pyridin-2-ylmethoxy)benzamide]",74.2
6,"Cc1ccc(-c2ncc[nH]2)cc1NC(=O)c1ccc(OCC2CCCCN2C)cc1 (centres unmarked) [Example 143, N-(5-(1H-imidazol-2-yl)-2-methylphenyl)-4-((1-methylpiperidin-2-yl)methoxy)benzamide]",62.3
7,"Cc1cc(F)c(-c2ncc[nH]2)cc1NC(=O)c1ccc(OCc2ccccn2)cc1 [Example 102, N-[4-fluoro-5-(1H-imidazol-2-yl)-2-methylphenyl]-4-(pyridin-2-ylmethoxy)benzamide]",87.1
8,"COc1ccccc1COc1ccc(C(=O)Nc2cc(-c3ncc[nH]3)ccc2C)cc1 [Example 63, N-[5-(1H-imidazol-2-yl)-2-methylphenyl]-4-[(2-methoxybenzyl)oxy]benzamide]",79.8
9,"Cc1ccc(-c2ncc[nH]2)cc1NC(=O)c1ccc(OCC2CCCCN2C(=O)OC(C)(C)C)cc1 (centres unmarked) [Example 141, tert-butyl 2-((4-(5-(1H-imidazol-2-yl)-2-methylphenylcarbamoyl)phenoxy)methyl)piperidine-1-carboxylate]",85.3
10,"O=C(Nc1cc(-c2ncc[nH]2)ccc1Cl)c1ccc(OCc2ccccn2)cc1 [Example 105, N-[2-chloro-5-(1H-imidazol-2-yl)phenyl]-4-(pyridin-2-ylmethoxy)benzamide]",82.1
11,"COc1cccc(COc2ccc(C(=O)Nc3cc(-c4ncc[nH]4)ccc3C)cc2)n1 [Example 123, N-(5-(1H-imidazol-2-yl)-2-methylphenyl)-4-((6-methoxypyridin-2-yl)methoxy)benzamide]",84.7
12,"Cc1ccc(-c2cc(C(F)(F)F)n[nH]2)cc1NC(=O)c1ccc(OCc2ccccn2)cc1 [Example 37, N-[2-methyl-5-[5-(trifluoromethyl)-2H-pyrazol-3-yl]phenyl]-4-(pyridin-2-ylmethoxy)benzamide]",38.2
13,"Cc1ccc(-c2ccccn2)cc1NC(=O)c1ccc(OCc2ccccn2)cc1 [Example 9, N-(2-methyl-5-pyridin-2-yl-phenyl)-4-(pyridin-2-ylmethoxy)benzamide]",60.5
14,"COc1cc(COc2ccc(C(=O)Nc3cc(-c4nc(C)cn4C)ccc3C)cc2)cc(OC)c1 [Example 42, 4-[(3,5-dimethoxyphenyl)methoxy]-N-[5-(1,4-dimethylimidazol-2-yl)-2-methyl-phenyl]benzamide]",79.4
15,"Cc1cc(C)c(-c2cn(C)cn2)cc1NC(=O)c1ccc(OCc2ccccn2)cc1 [Example 71, N-[2,4-dimethyl-5-(1-methyl-1H-imidazol-4-yl)phenyl]-4-(pyridin-2-ylmethoxy)benzamide]",84.9
16,"CNCc1c(-c2ccc(C)c(NC(=O)c3ccc(OCc4ccccn4)cc3)c2)ncn1C [Example 80, N-(2-methyl-5-{1-methyl-5-[(methylamino)methyl]-1H-imidazol-4-yl}phenyl)-4-(pyridin-2-ylmethoxy)benzamide]",57.1
17,"Cc1ccc(-c2nc(C3CC3)c[nH]2)cc1NC(=O)c1ccc(OCc2ccccn2)cc1 [Example 87, N-[5-(4-cyclopropyl-1H-imidazol-2-yl)-2-methylphenyl]-4-(pyridin-2-ylmethoxy)benzamide]",74.8
18,"Cc1ccc(-c2cn(C)cn2)cc1NC(=O)c1ccc(OCc2ccccc2C#N)cc1 [Example 53, 4-[(2-cyanophenyl)methoxy]-N-[2-methyl-5-(1-methylimidazol-4-yl)phenyl]benzamide]",80.4

# Same assay, conditions: Mus musculus, C3H 10T1/2, Shh ligand conditioned media, 72 h, alkaline phosphatase (pNp, 405 nm)
row,IC50 [µM],Structure (SMILES)
1,0.03,"Cc1ccc(-c2ncnc3nc[nH]c23)cc1NC(=O)c1ccc(OCc2ccccn2)cc1 [Example 18, N-[2-methyl-5-(7H-purin-6-yl)phenyl]-4-(pyridin-2-ylmethoxy)benzamide]"
2,0.12,"Cc1ccc(-c2ccccn2)cc1NC(=O)c1ccc(OCc2ccccn2)cc1 [Example 9, N-(2-methyl-5-pyridin-2-yl-phenyl)-4-(pyridin-2-ylmethoxy)benzamide]"
